Laboratory results as given in patent publication US20140357720A1, “NOVEL PHYTOSPHINGOSINE DERIVATIVES, AND A COSMETIC COMPOSITION COMPRISING THE SAME FOR PREVENTING AND AMELIORATING INFLAMMATORY SKIN DISEASES AND HYPERKERATOSIS DISEASES” (THE CATHOLIC UNIVERSITY OF KOREA INDUSTRY-ACADEMIC …, priority 2011, published 2014).

What was measured:
NF-κB [1] = experiment: Nuclear translocation of NF-κB in TPA-stimulated skin keratinocytes (immunostaining, microscopy); format: cell-based, human; conditions: TPA stimulation, FIG. 1B
Protocol: (§1) Herein, in order to verify the effect of novel synthetic YG-II-6 compounds and their lead compound, phytosphingosine, on phosphorylation and degradation of IκBα, which is a protein that inhibits the activity of NF-κB by forming a complex with NF-κB, skin keratinocytes were pre-treated with respective compounds for 1 hour and then stimulated with 400 nM TPA for 15 minutes and 30 minutes, respectively. In order to verify the phosphorylation of NF-κB and the expression level of NF-κB in the cytoplasm and nucleus, skin keratinocytes were stimulated for 15 minutes and 1 hour, respectively. The results were confirmed by western blot analysis. In addition, the nuclear translocation of NF-κB was confirmed through reaction with antibodies, fluorescent labeling, and direct observation by microscopy. In order to verify the activity of the respective compounds at the transcription stage, cells were transfected with plasmids labeled with NF-κB luciferase reporter, and the luciferase activity was measured by the luciferase assay. In addition, the phosphorylation of IκBα and NF-κB was measured in the PTA-stimulated mouse skin.

ERK1/2, p38, JNK = experiment: MAP kinase phosphorylation in TPA-stimulated skin keratinocytes (western blot); format: cell-based, human; conditions: FIG. 4
Protocol: In order to verify the effects of the respective compounds on MAP kinase, skin keratinocytes were treated with the respective compounds for 1 hour, and then stimulated with 400 nM TPA for 15 minutes. The level of phosphorylation was confirmed by western blot assay.

NF-κB [2] = experiment: NF-κB luciferase reporter assay, TPA stimulation; format: cell-based; conditions: FIG. 1C
Protocol: as §1

[3] = tested on: human-derived keratinocytes; experiment: Cytotoxicity on human-derived keratinocytes (WST-1 reagent); format: cell-based; conditions: WST-1, FIG. 7A
Protocol: (§2) Therefore, in order to verify the degree of the cytotoxicity of the YG-II-6 compounds, their cytotoxicity on human-derived keratinocytes was confirmed by using the WST-1 reagent. In order to verify the effects of the compounds on the expression of proteins associated with apoptosis, the keratinocytes were treated with corresponding concentrations of the respective compound samples and stimulated with TPA for 24 hours, and the expression levels of proteins were confirmed by western blot assay. In addition, human-derived keratinocytes and primary culture skin keratinocytes were treated with the compounds, and after 24 hours, subjected to FITC staining and TUNEL assay, and the skin tissues isolated from TPA-induced mice was subjected to FITC staining.

NF-κB [4] = experiment: Phosphorylation and degradation of IκBα and phosphorylation of NF-κB in TPA-stimulated skin keratinocytes (western blot); format: cell-based, human
Protocol: as §1

[5] = tested on: human-derived keratinocytes and primary culture skin keratinocytes; experiment: Apoptosis in keratinocytes (FITC staining and TUNEL assay); format: cell-based; conditions: 24 hours, FIGS. 7C to 7E
Protocol: as §2

mouse skin tissues = experiment: Apoptosis in skin tissues isolated from TPA-induced mice (FITC staining); format: in vivo; conditions: FIGS. 7C to 7E
Protocol: as §2

[6] = overall conclusion of section 2-1

| Structure (SMILES) | nuclear translocation of NF-κB (NF-κB [1]) | inhibitory activity on phosphorylation of ERK1/2, p38, and JNK relative to the YG-II-6 compounds (ERK1/2, p38, JNK) | phosphorylation of ERK1/2, p38, and JNK (ERK1/2, p38, JNK; skin keratinocytes, 1 hour treatment, 400 nM TPA 15 minutes) | NF-κB luciferase activity increased by TPA stimulation (NF-κB [2]) | concentration at which cytotoxicity was shown [3] | activation of NF-κB (phosphorylation and degradation of IκBα) (NF-κB [4]; [6]) | phosphorylation of IκBα and NF-κB increased by TPA stimulation (NF-κB [4]; skin keratinocytes, 1 hour pre-treatment, 400 nM TPA, FIG. 1A) | apoptosis in the TPA-stimulated cells [5] | apoptosis in the mouse skin tissues (mouse skin tissues) | inhibitory effect on the NF-κB activation, fYG-II-6 compared with mYG-II-6 (NF-κB [4]; [6]) |
| --- | --- | --- | --- | --- | --- | --- | --- | --- | --- | --- |
| CCCCCCCCCCCCCC[C@@H](O)[C@@H](O)[C@@H](N)CO [phytosphingosine] | inhibited | relatively weaker inhibitory activity | no or little inhibitory effect | inhibited | 5 to 10 µM | inhibited | inhibited | induced apoptosis | induced apoptosis | – |
| CCCCCCCCCCCCCC[C@@H](O)[C@@H](O)[C@H](CO)NC(=O)/C=C/C(=O)O [fYG-II-6, (E)-4-oxo-4-(((2S,3S,4R)-1,3,4-trihydroxyoctadecan-2-yl)amino)but-2-enoic acid] | – | – | – | – | – | – | – | – | – | relatively greater inhibitory effect than mYG-II-6 |
